This passage reports Ki results from the Kinase Knowledgebase extract (Sharma et al. 2016).

As a reminder, the Ki is a measure of affinity in units of concentration, obtained from inhibition or displacement. A higher Ki goes with lower affinity.

In this experiment the target is PIK3CG (human) (UniProt P48736). Briefly: Inhibition of PIK3CG Kinase Activity.
Sequence of PIK3CG (human) (P48736 whole entry, looked up): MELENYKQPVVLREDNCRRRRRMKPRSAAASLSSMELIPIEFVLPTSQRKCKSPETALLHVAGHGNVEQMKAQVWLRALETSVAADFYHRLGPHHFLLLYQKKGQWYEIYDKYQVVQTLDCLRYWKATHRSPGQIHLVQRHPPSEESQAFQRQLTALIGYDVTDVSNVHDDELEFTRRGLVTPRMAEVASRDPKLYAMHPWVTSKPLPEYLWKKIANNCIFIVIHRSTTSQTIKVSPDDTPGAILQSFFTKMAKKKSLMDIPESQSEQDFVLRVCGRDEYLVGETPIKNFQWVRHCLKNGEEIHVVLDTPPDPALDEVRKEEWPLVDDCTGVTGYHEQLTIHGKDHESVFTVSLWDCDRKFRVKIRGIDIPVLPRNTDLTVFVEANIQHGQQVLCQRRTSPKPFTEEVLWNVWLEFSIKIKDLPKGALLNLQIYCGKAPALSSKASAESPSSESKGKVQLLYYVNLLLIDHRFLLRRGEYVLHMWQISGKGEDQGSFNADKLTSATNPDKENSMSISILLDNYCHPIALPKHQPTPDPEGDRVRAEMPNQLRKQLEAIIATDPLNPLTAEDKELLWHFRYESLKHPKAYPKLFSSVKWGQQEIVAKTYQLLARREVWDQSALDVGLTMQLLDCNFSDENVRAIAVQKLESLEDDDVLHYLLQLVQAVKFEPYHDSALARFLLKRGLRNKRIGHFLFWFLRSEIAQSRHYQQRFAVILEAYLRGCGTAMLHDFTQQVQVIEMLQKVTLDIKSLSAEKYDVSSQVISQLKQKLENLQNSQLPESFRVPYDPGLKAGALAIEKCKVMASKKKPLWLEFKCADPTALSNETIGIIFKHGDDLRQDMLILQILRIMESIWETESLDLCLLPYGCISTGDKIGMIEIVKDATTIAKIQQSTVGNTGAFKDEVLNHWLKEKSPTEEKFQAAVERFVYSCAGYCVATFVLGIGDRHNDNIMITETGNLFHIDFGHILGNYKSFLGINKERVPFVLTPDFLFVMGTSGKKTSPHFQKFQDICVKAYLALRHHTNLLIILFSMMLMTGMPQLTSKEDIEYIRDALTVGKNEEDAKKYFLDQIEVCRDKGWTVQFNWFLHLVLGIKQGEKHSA
With `Cc1cc(-c2cncc(OC(F)F)c2)nc2c1C(=O)N(c1cnn(C(C)(C)C#N)c1)C2C` (stereo not given), the inhibition constant Ki is under 100 nM. The same measure for `COc1cncc(-c2cc(C)c3c(n2)CN(c2ccn([C@@H]4CCOC4)n2)C3=O)c1`: under 100 nM. Consider `COCCn1cc(N2Cc3cc(-c4cnc(OC)c(OC)c4)ccc3C2=O)cn1`, for which the Ki was 100 to 490 nM. With `COc1ncc(-c2cc(C)c3c(c2)C(C)N(c2cnn(CC(F)(F)F)c2)C3=O)cc1F` (stereo not given) the figure was under 100 nM; with `COc1ccc(-c2cc(C)c3c(c2)C(C)N(c2cnn(CC(F)(F)F)c2)C3=O)cc1OC` (stereo not given), under 100 nM; with `CCOc1ncc(-c2cc(C)c3c(n2)C(CC)N(c2cnn(CC(F)(F)F)c2)C3=O)cc1OC` (stereo not given), under 100 nM. Compound `COCCNC(=O)c1cncc(-c2cc(C)c3c(n2)C(C)(C)N(c2cnn(CC(F)(F)F)c2)C3=O)c1` came in with an inhibition constant (Ki) of under 100 nM. Consider `COc1ncc(-c2cc(C)c3c(n2)CN(c2ccn(C4COC4)n2)C3=O)cc1OCC(F)(F)F`, for which the Ki is under 100 nM. Compound `COc1cc(-c2cc3c(c(C)n2)C(=O)N(c2cnn(CC(F)(F)F)c2)C3)cnc1OC` yielded an inhibition constant Ki of under 100 nM. `COc1cc(-c2ccc3c(n2)C(C)N(c2cnn(C[C@@H](C)O)c2)C3=O)cnc1OC` (stereo not given in full) displayed a Ki of 100 to 490 nM. In the case of `COc1cc(-c2cc(C)c3c(n2)C(C)N(c2cnn(CC(F)F)c2)C3=O)cnc1OC` (stereo not given), the Ki was under 100 nM. For the compound `Cc1cc(-c2cncc(OC(F)F)c2)nc2c1C(=O)N(c1cnn(CC(F)(F)F)c1)C2(C)C`, the inhibition constant Ki is under 100 nM. With `COc1cc(-c2ccc3c(c2)CN(c2cc(C4CC4)[nH]n2)C3=O)cnc1OC`, the Ki was under 100 nM. `CCOc1cc(-c2cc(C)c3c(c2)CN(c2cnn(CC#N)c2)C3=O)cnc1OCC` gave a Ki of under 100 nM. `C=CC1(O)c2nc(-c3cncc(OC)c3)cc(C)c2C(=O)N1c1cnn(CC(F)(F)F)c1` (stereo not given) registered a Ki of 100 to 490 nM. The same measure for `COc1cc(-c2cc(C)c3c(n2)C(C)(C)N(c2cnn(CC(F)(F)F)c2)C3=O)cnc1C`: under 100 nM; for `COc1cc(-c2cc(C)c3c(n2)[C@@H](C)N(c2cnn(C[C@@H](C)O)c2)C3=O)cnc1OC`: under 100 nM. Take `COc1ncc(-c2cc(C)c3c(c2)C(C)N(c2cnn(CC(F)(F)F)c2)C3=O)cc1OC(F)F` (stereo not given): the inhibitory constant (Ki) was under 100 nM. The same measure for `COCCOc1ncc(-c2cc(C)c3c(n2)C(C)N(c2ccn(C)n2)C3=O)cc1OC` (stereo not given): under 100 nM. Turning to `Cc1cc(-c2cncc(OCC(F)F)c2)nc2c1C(=O)N(c1cnn(CC(F)(F)F)c1)C21CCOCC1`, the Ki is under 100 nM.

`CCn1ccc(N2Cc3nc(-c4cnc(OC)c(OCC(F)F)c4)cc(C)c3C2=O)n1` showed an inhibition constant (Ki) of under 100 nM. As to `CCOc1cc(-c2cc(C)c3c(n2)C(C)(C)N(c2cnn(CC(F)(F)F)c2)C3=O)cnc1C`, the Ki is under 100 nM. The compound `COc1cc(-c2ccc3c(n2)CN(c2cnn(C)n2)C3=O)cnc1OC` displayed an inhibition constant (Ki) of under 100 nM. Compound `COc1cc(-c2ccc3c(n2)[C@@H](C)N(c2ccn(CC(C)(C)O)n2)C3=O)cnc1OC` registered a Ki of under 100 nM.

In turn, `COc1cc(-c2cc(Cl)c3c(n2)CN(c2cnn(CC#N)c2)C3=O)cnc1OC` registered a Ki of under 100 nM.

With `Cc1cc(-c2cnc(C)c(O)c2)nc2c1C(=O)N(c1cnn(CC(F)(F)F)c1)C2`, the inhibitory constant (Ki) is under 100 nM. In turn, `COc1ccc(-c2cc(C)c3c(n2)CN(c2cnn(CC(F)(F)F)c2)C3=O)c(OC)c1` returned a Ki of 100 to 490 nM.

In turn, `COc1cc(-c2ccc3c(n2)CN(c2cnn([C@H](CO)C(F)(F)F)c2)C3=O)cnc1OC` had a Ki of under 100 nM. With `COc1cc(-c2ccc3c(n2)CN(c2ccc(N4CC[C@@H](F)C4)nc2)C3=O)cnc1OC` the figure was 100 to 490 nM. Regarding `COc1cncc(-c2cc(C)c3c(n2)[C@@H](C)N(c2cn[nH]c2)C3=O)c1`, the Ki was under 100 nM.

`CCOC1c2nc(-c3cnc(OC)c(OC)c3)cc(C)c2C(=O)N1c1cnn(CC(F)(F)F)c1` (stereo not given): the Ki was under 100 nM.

`Cc1cc(-c2cncc(C(F)(F)F)c2)nc2c1C(=O)N(c1cnn(CC#N)c1)C2` displayed a Ki of under 100 nM. In turn, `COC1c2nc(-c3cncc(OCC(F)F)c3)cc(C)c2C(=O)N1c1cnn(CC(F)(F)F)c1` (stereo not given) showed a Ki of under 100 nM. Take `COc1cc(-c2cc(C)c3c(n2)CN(c2cnc(C(C)(C)O)c(F)c2)C3=O)cnc1OC`: the Ki is under 100 nM.

Consider `COc1cncc(-c2cc(C)c3c(n2)C(C)N(c2ccn(CC(C)(C)O)n2)C3=O)c1` (stereo not given), for which the Ki was under 100 nM. `Cc1cc(-c2cncc(OC(F)F)c2)nc2c1C(=O)N(c1cn[nH]c1)[C@@H]2C` gave a Ki of under 100 nM. With `COc1cc(-c2ccc3c(n2)CN(c2cnn(Cc4cc(C)no4)c2)C3=O)cnc1OC`, the inhibition constant Ki was under 100 nM. With `COc1cncc(-c2cc(C)c3c(n2)C(C)N(c2cn[nH]c2)C3=O)c1` (stereo not given) the figure was under 100 nM.

Regarding `Cc1cc(-c2cncc(S(C)(=O)=O)c2)nc2c1C(=O)N(c1cnn(CC(F)(F)F)c1)[C@H]2C`, the inhibitory constant (Ki) was under 100 nM. The compound `COc1cc(-c2ccc3c(n2)CN(c2cnn(CC4(C)COC4)c2)C3=O)cnc1OC` returned an inhibition constant Ki of under 100 nM. As to `COc1cc(-c2cc(C)c3c(n2)CN(c2ccc(OCCCC(F)(F)F)nc2)C3=O)cnc1OC`, the Ki was under 100 nM. The same measure for `COc1cc(-c2cc(C)c3c(n2)CN(c2cnn(C(C)(C)C#N)c2)C3=O)cnc1OC`: under 100 nM; for `CCc1cc(N2Cc3nc(-c4cnc(OC)c(OC)c4)cc(C)c3C2=O)nn1CC`: under 100 nM. As for `COc1cc(-c2cc(C)c3c(n2)CN(c2cnn(CC(F)(F)F)c2)C3=O)ccn1`, the inhibition constant (Ki) was under 100 nM. Take `COc1cc(-c2ccc3c(n2)CN(c2cnn(CCN4CCC(C#N)CC4)c2)C3=O)cnc1OC`: the Ki was in the range of 100 to 490 nM.

Turning to `COc1cc(-c2cc(C)c3c(n2)CN(c2cnn(CC(F)F)c2)C3=O)cnc1OC`, the inhibition constant (Ki) is under 100 nM.

As to `C=C1c2nc(-c3cnc(OC)c(OC)c3)ccc2C(=O)N1c1cnn(CC#N)c1`, the inhibitory constant (Ki) is under 100 nM. With `COc1cc(-c2cc(C)c3c(n2)[C@](C)(O)N(c2cnn(CC(F)(F)F)c2)C3=O)cnc1OC`, the inhibitory constant (Ki) is under 100 nM. Turning to `COc1cc(-c2cc(C)c3c(n2)CN(c2csc(CO)c2)C3=O)cnc1OC`, the inhibitory constant (Ki) is under 100 nM. For `COc1cc(-c2cc(C)c3c(n2)CN(c2ccc(OCC(F)F)nc2)C3=O)cnc1OC`, the Ki is under 100 nM. The compound `COc1cc(-c2cc(C)c3c(n2)[C@@]2(CCCO2)N(c2cnn(CC(F)(F)F)c2)C3=O)cnc1OC` yielded a Ki of under 100 nM. As for `Cc1cc(-c2cncc(C(=O)O)c2)nc2c1C(=O)N(c1cnn(CC(F)(F)F)c1)C2C` (stereo not given), the Ki is under 100 nM. Compound `COc1cncc(-c2cc(C)c3c(n2)C2(CNC2)N(c2cnn(CC(F)(F)F)c2)C3=O)c1` displayed a Ki of under 100 nM.

Compound `COc1cc(-c2cc(C)c3c(n2)CN(c2cncs2)C3=O)cnc1OC` registered an inhibition constant Ki of under 100 nM.

Compound `COCCOc1ccc(N2Cc3nc(-c4cnc(OC)c(OC)c4)ccc3C2=O)cn1` returned an inhibitory constant (Ki) of under 100 nM. On to `CCNC(=O)c1cncc(-c2cc(C)c3c(n2)C(C)(C)N(c2cnn(CC(F)(F)F)c2)C3=O)c1`, for which the Ki is under 100 nM. Compound `CCc1cc(N2Cc3nc(-c4cnc(OC)c(OC)c4)ccc3C2=O)nn1C[C@H](C)O` yielded an inhibitory constant (Ki) of under 100 nM.

The compound `COc1cc(-c2cc(C)c3c(n2)CN(c2cnn(CC#N)c2)C3=O)cnc1OC` had a Ki of under 100 nM. The compound `COc1cc(-c2cc(C)c3c(n2)CN(c2cncc(CC#N)c2)C3=O)cnc1OC` displayed an inhibition constant (Ki) of under 100 nM.

`COc1cc(-c2cc(C)c3c(n2)CN(c2cn(C)cn2)C3=O)cnc1OC` registered a Ki of under 100 nM.

Compound `COc1cncc(-c2cc(C)c3c(n2)C(C)(C)N(c2ccn(CC(C)(C)O)n2)C3=O)c1` had an inhibitory constant (Ki) of 100 to 490 nM.

As for `COc1cccc(-c2cc(C)c3c(n2)CN(c2cnn(C(C)(C)C#N)c2)C3=O)c1`, the inhibitory constant (Ki) was under 100 nM. `Cc1cc(-c2cncc(OC(F)F)c2)nc2c1C(=O)N(c1ccnc(OCC(F)F)c1)C2C` (stereo not given): the inhibitory constant (Ki) was under 100 nM. `COc1cncc(-c2cc(C)c3c(n2)C(C)(O)N(c2cnn(CC(F)(F)F)c2)C3=O)c1` (stereo not given): the Ki was under 100 nM.

With `COc1cc(-c2ccc3c(n2)CN(c2cnn(Cc4ccncc4)c2)C3=O)cnc1OC`, the inhibition constant (Ki) is under 100 nM.

Compound `COc1cc(-c2ccc3c(n2)CN(c2ccnc(N(C)CCCN(C)C)c2)C3=O)cnc1OC` registered an inhibitory constant (Ki) of 100 to 490 nM. On to `COc1cc(-c2ccc3c(n2)C(N2CC[C@@H](F)C2)N(c2cnn(CC(F)(F)F)c2)C3=O)cnc1OC` (stereo not given in full), for which the Ki is under 100 nM. For the compound `CCn1cc(N2Cc3nc(-c4ccc(OC)c(OC)c4)cc(C)c3C2=O)cn1`, the inhibition constant (Ki) is under 100 nM. `CCn1ccc(N2Cc3nc(-c4cnc(OC)c(OC)c4)ccc3C2=O)n1` registered a Ki of under 100 nM. Consider `Cc1cc(-c2cnc(C)c(OCC(F)(F)F)c2)nc2c1C(=O)N(c1cnn(CC(F)(F)F)c1)C2(C)C`, for which the Ki is under 100 nM. For `COc1cc(-c2ccc3c(n2)CN(c2ccc(N4CCC(N(C)C)C4)nc2)C3=O)cnc1OC` (stereo not given), the inhibitory constant (Ki) is under 100 nM. Take `COc1cc(-c2ccc3c(n2)CN(c2ccc(N(C)CC4CCCO4)nc2)C3=O)cnc1OC` (stereo not given): the Ki lay in the range of 100 to 490 nM. The same measure for `COc1ncc(-c2cc(C)c3c(n2)CN(c2cnn(CC(F)(F)F)c2)C3=O)cc1Cl`: under 100 nM; for `CCn1ccc(N2C(=O)c3c(C)cc(-c4cncc(OC(F)F)c4)nc3[C@H]2C)n1`: under 100 nM; for `COc1cc(-c2ccc3c(n2)CN(c2cnn([C@@H](CO)C(F)(F)F)c2)C3=O)cnc1OC`: under 100 nM. With `COc1cc(-c2cc(C)c3c(n2)[C@]2(CCCO2)N(c2cnn(CC(F)(F)F)c2)C3=O)cnc1OC` the figure was under 100 nM; with `COc1cc(-c2ccc3c(n2)CN(c2cncc(C(C)(C)O)c2)C3=O)cnc1OC`, under 100 nM. For the compound `CNC(=O)c1cncc(-c2cc(C)c3c(n2)CN(c2cnn(CC(F)(F)F)c2)C3=O)c1`, the Ki is under 100 nM. Compound `Cc1cc(-c2cncc(C(=O)NC(C)C)c2)nc2c1C(=O)N(c1cnn(CC(F)(F)F)c1)C2(C)C` yielded an inhibitory constant (Ki) of under 100 nM. With `Cc1cc(-c2cncc(OC(F)F)c2)nc2c1C(=O)N(c1cncc(C(C)(C)C#N)c1)C2` the figure was under 100 nM. The compound `COc1ncc(-c2cc(C)c3c(n2)CN(c2cc[nH]n2)C3=O)cc1OC(F)F` registered a Ki of under 100 nM.

Regarding `COc1cc(-c2cc(C)c3c(n2)CN(c2cc(O)[nH]n2)C3=O)cnc1OC`, the Ki is under 100 nM. `COCCCn1cc(N2Cc3cc(-c4cnc(OC)c(OC)c4)ccc3C2=O)cn1` yielded a Ki of 100 to 490 nM.

Turning to `COc1cc(-c2cc(C)c3c(n2)CN(c2csc(C)c2)C3=O)cnc1OC`, the Ki was under 100 nM. Turning to `CCn1ccc(N2C(=O)c3c(C)cc(-c4cncc(OCC(F)F)c4)nc3C2C)n1` (stereo not given), the inhibition constant Ki was under 100 nM.
